Laboratory results reported in US11578110B2, “Compounds for inducing tissue formation and uses thereof” (HISTIDE AG, priority 2015, dated 2023).

Test system: hMSCs
Experiment: STRO-1 stemness marker expression in hMSCs (immunostaining, ImageJ quantification)
Type: cell-based, Human
Conditions: SEQ ID NO: 1 to 49 tested in combination with a bioactive carrier (titanium, ceramics, PEEK, hydrogel, etc.)
Method: The cells were first fixed for 20 min with 4% paraformaldehyde/PBS at 4° C. After fixation, the cells were permeabilized in PBS containing 1% Triton X-100 for 15 min. Runx2, Osterix, Stro-1, Vinculin, Phalloidin, Osteopontin, Sox2, Sox9 antibodies were visualized by treating the cells with 1% (v/v) specific monoclonal antibodies for 1 hour at 37° C. Then the samples were incubated with Alexa fluor® 568 or 647 (F(ab′)2 fragment of IgG(H+L)) during 30 min at room temperature. The cell nuclei were counterstained in 20 ng/mL DAPI for 10 min at room temperature.
For this type of quantification the freeware image analysis ImageJ® software was used. The raw image was first converted to an 8-bit file, and then the unsharp mask feature was used (settings 1:0.2) to remove the image background (rolling ball radius 10). After smoothing, the resulting image, which appears similar to the original photomicrograph but with minimal background, was then converted to a binary image by setting a threshold. Threshold values were determined empirically by selecting a setting, which gave the most accurate binary image for a subset of randomly selected photomicrographs. The cell area was determined by manual delineation on raw fluorescent images. Total contact area and mean contact area per cell were calculated by “analyse particles” in ImageJ®. A minimum of 30 cells per condition were analyzed. Stro-1, CD-34+, and CD-105 expressions were determined using this procedure.
hMSCs were cultured on conventional cell culture plastic plates with or without the presence in the cell culture media of different GFR-binding compounds as defined hereins (SEQ ID NO: 50 to 104) in solution. […] This was probed by Stro-1 immunostaining after cell fixation as described in the Methods section. The quantification of Stro-1 positive contact numbers and areas was performed as described in the Methods section. A minimum of 30 cells per condition were analyzed.
RMSD values are always calculated for a GFR-binding peptide sequence exempt from any bioactive-carrier-affinity-containing group as defined herein (e.g. cysteine, WWFWG, GTPGP, etc. . . . ). When needed i.e. when attachment to a bioactive carrier is contemplated, the bioactive-carrier-affinity-containing group is then present in the GFR-binding compound when it is biologically tested. Using the method detailed in the description, the RMSD of 57 previously reported peptide sequences have been determined (Table 6) and correlated with the expression of STRO-1 after grafted on a PET surface via a procedure as already described above. […] One should note that it is commonly admitted that the expression of STRO-1 in a cell is indicative of a cell that is in a substantially non-differentiated state and the decrease of its expression of at least about 20% is indicative of a cell that has started a processes of differentiation but which may not result in the differentiation of the cell. A decrease of more than 50% would be indicative of the presence of a significant shift towards a differentiated state. A decrease of more than 70% would be indicative of the presence of a very important shift towards a differentiated state. A sustained decrease (e.g. for at least 96 h) of more than 50% or 70% would be indicative of the presence of an even more important shift towards a differentiated state.
Likewise, using the method detailed in the description, the RMSD of 87 GFR-binding peptide sequence representatives of the invention have been determined (Table 7) and correlated with the expression of STRO-1 after grafted on a PET surface via a procedure as already described above. SEQ ID NO: 1 to 49 were tested in combination with a bioactive carrier as defined above in the Examples Section (i.e. titanium, ceramics, PEEK, hydrogel, etc. . . . ), whereas SEQ ID NO: 1143 to 1180 were tested in solution.

| Sequence | STRO-1 expression [%] |
| --- | --- |
| KIPKASSVPTELSATSVLYY [SEQ ID NO: 6] | 25 |
| KVGKASSVPTKLEPLTILYY [SEQ ID NO: 13] | 26 |
| KVGKASSVPTKLSAISMLYL [SEQ ID NO: 20] | 19 |
| KVGKASSVSQKLEPLTILYY [SEQ ID NO: 10] | 32 |
| NDEGLESAPTEENAISVLYF [SEQ ID NO: 4] | 22 |
| NDEGLESAPTGQNAISVLYF [SEQ ID NO: 5] | 27 |

Same assay, conditions: SEQ ID NO: 1 to 49 tested in combination with a bioactive carrier (titanium, ceramics, PEEK, hydrogel, etc.), listed as 45

| Sequence | STRO-1 expression [%] |
| --- | --- |
| NDEGLESVPAEESPISILYI [SEQ ID NO: 45] | 16 |

Same assay, conditions: SEQ ID NO: 1143 to 1180 tested in solution

| Sequence | STRO-1 expression [%] |
| --- | --- |
| KIPKASSTQVRLRPVQIRKI (GFR-binding peptide) [SEQ ID NO: 1153] | 30 |
| KIPKASSTQVRLRSVKTAKV (GFR-binding peptide) [SEQ ID NO: 1178] | 35 |
| KIPKASSVPAQLEPLPIVYY (GFR-binding peptide) [SEQ ID NO: 1171] | 28 |
| KIPKASSVPTGGSNITVQIM (GFR-binding peptide) [SEQ ID NO: 1151] | 32 |
| KIPKASSVPTKMKPLSVLYV (GFR-binding peptide) [SEQ ID NO: 1168] | 21 |
| KIPKASSVSQKMEPLTMLYY (GFR-binding peptide) [SEQ ID NO: 1150] | 20 |
| KIPKASSVSQQLEPISTLYL (GFR-binding peptide) [SEQ ID NO: 1165] | 17 |

Same assay, conditions: grafted on a PET surface

| Sequence | STRO-1 expression [%] |
| --- | --- |
| KIPKPSSAPTELSAISMC (Previously reported sequence) [SEQ ID NO: 1129, reference compound] | 78 |
| KIPKPSSAPTELSAISMLC (Previously reported sequence) [SEQ ID NO: 1132, reference compound] | 82 |
| KIPKPSSAPTELSAISMLYC (Previously reported sequence) [SEQ ID NO: 1133, reference compound] | 80 |
| KPCCAPTELSAISVLYFDDSSNVILKKYRNMVVRACGCR (Previously reported sequence) [SEQ ID NO: 1142, reference compound] | 83 |
| KPCCAPTQLSAISVLYFDDSSNVILKKYRNMVVRACGCR (Previously reported sequence) [SEQ ID NO: 1141, reference compound] | 80 |
| LGIAAIIFLQQVPAAFSATSPPG (Previously reported sequence) [SEQ ID NO: 1113, reference compound] | 97 |
| LMDLARMPSCLRGERAVPQDTTGYFTWSSNITPLNFIF (Previously reported sequence) [SEQ ID NO: 1093, reference compound] | 92 |
| LNEVLRFCGIQVPEGDEPLTY (Previously reported sequence) [SEQ ID NO: 1095, reference compound] | 99 |
| LSLLAPPEPVWNHETSYGSDCHVPTNVNAISKMIDKSNHQTG (Previously reported sequence) [SEQ ID NO: 1125, reference compound] | 93 |
| MAAQDEWRDAITLTMGRDLKKVPQHLNAISVIDPVT (Previously reported sequence) [SEQ ID NO: 1124, reference compound] | 83 |
| MALPQPRGSSLSKAPVVVAPCMALKRVNIRSIVFEVLKTMNQNCIHETPN (Previously reported sequence) [SEQ ID NO: 1123, reference compound] | 82 |
| MQCRELVTQVTEEPISQTEDGEEQESTTTPRLKGQKKE (Previously reported sequence) [SEQ ID NO: 1104, reference compound] | 85 |
| MRTESTPTTASAISYECLWSPPSNEAAKLHFDS (Previously reported sequence) [SEQ ID NO: 1137, reference compound] | 94 |
| MSRVLFEPLTFLQTGSGLPDEKTLG (Previously reported sequence) [SEQ ID NO: 1096, reference compound] | 94 |
